Reference: patent US20240269139A1, “COMPOUNDS FOR TARGETED PROTEIN DEGRADATION OF KINASES” (DANA-FARBER CANCER INSTITUTE, INC., priority 2020, published 2024)
Like-named read-outs stand apart in the source and are kept apart here.

Tests used:
Assay type in all cases: cell-based
[1] = biological target: protein kinases (human kinome) (Homo sapiens, UniProt Q15131); settings: for logFC: CDK10 (Q15131-1)
[2] = biological target: protein kinases (human kinome) (Homo sapiens, UniProt P23443); settings: for logFC: RPS6KB1 (P23443-1)
[3] = biological target: protein kinases (human kinome) (Homo sapiens, UniProt P53350)
[4] = biological target: T1, protein kinases (human kinome) (Homo sapiens, UniProt O95835); settings: LATS1 O95835
T1 sequence (O95835 1-1130): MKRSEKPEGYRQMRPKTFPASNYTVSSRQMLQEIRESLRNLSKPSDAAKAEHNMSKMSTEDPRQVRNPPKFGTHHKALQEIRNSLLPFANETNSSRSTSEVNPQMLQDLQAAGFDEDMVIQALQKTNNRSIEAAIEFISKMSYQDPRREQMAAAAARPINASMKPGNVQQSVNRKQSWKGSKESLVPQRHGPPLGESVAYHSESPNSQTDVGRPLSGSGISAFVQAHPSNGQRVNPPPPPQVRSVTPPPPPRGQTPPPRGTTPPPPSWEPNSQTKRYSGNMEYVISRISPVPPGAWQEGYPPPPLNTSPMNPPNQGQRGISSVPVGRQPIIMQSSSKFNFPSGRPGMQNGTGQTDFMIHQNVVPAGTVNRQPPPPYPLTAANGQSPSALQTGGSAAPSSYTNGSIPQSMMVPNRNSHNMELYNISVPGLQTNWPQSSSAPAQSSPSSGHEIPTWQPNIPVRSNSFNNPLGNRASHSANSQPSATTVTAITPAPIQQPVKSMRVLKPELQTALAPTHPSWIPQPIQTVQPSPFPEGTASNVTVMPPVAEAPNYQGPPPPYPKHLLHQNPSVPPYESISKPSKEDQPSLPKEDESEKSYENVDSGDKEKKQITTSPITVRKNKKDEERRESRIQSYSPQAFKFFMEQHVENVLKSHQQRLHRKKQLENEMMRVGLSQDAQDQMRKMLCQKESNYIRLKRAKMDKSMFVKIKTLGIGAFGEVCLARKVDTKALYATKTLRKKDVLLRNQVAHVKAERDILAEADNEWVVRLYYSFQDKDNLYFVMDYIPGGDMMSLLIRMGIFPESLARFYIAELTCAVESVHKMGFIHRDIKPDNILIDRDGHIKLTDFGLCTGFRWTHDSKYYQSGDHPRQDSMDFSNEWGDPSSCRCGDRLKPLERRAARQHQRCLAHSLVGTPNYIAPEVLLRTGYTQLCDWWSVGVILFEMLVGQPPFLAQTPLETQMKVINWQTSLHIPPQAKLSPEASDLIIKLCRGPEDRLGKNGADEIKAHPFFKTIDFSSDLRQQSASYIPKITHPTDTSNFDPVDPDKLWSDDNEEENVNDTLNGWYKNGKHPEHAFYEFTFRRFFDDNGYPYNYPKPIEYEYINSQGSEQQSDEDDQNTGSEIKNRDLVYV

[5] = biological target: protein kinases (human kinome) (Homo sapiens, UniProt Q92918)
[6] = biological target: protein kinases (human kinome) (Homo sapiens, UniProt O96013); settings: PAK4 O96013-1
[7] = biological target: protein kinases (human kinome) (Homo sapiens, UniProt O94921); settings: for logFC: CDK14 (O94921-1)
[8] = biological target: protein kinases (human kinome) (Homo sapiens, UniProt P54646); settings: experiment wp146; for logFC: PRKAA2 (P54646)
Sequence of protein kinases (human kinome) (Homo sapiens, UniProt P54646) (P54646 whole entry): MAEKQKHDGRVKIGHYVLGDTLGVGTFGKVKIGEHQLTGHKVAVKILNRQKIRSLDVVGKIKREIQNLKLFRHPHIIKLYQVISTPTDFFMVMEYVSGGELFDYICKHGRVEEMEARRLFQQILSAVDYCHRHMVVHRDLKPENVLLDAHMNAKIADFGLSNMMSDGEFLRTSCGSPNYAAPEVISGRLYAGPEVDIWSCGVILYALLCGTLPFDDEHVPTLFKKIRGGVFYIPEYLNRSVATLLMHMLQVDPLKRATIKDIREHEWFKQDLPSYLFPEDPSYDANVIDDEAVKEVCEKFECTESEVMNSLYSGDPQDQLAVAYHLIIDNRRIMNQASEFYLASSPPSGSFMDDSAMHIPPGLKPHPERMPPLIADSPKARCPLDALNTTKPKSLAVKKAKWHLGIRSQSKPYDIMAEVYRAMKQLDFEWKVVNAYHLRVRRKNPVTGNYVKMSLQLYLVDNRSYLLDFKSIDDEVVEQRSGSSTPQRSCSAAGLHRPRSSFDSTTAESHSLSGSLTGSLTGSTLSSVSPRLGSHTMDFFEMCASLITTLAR

Sequence of protein kinases (human kinome) (Homo sapiens, UniProt P53350) (P53350 whole entry): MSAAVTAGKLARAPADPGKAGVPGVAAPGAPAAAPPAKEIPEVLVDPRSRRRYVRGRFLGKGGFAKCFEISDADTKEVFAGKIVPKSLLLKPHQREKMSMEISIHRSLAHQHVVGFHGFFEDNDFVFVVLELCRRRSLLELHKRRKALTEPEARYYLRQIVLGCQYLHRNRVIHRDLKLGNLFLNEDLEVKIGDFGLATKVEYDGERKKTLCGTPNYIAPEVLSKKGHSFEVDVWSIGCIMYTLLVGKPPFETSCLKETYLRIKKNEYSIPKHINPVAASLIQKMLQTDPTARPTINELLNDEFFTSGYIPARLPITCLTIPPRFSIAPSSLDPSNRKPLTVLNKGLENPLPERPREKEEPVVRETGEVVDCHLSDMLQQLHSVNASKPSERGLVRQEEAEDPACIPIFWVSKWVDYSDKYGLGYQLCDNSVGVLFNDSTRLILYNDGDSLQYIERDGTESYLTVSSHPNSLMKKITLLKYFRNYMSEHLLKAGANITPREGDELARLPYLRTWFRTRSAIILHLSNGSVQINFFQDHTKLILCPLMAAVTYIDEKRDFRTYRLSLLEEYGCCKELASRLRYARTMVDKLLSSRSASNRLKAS
Sequence of protein kinases (human kinome) (Homo sapiens, UniProt O94921) (O94921 whole entry): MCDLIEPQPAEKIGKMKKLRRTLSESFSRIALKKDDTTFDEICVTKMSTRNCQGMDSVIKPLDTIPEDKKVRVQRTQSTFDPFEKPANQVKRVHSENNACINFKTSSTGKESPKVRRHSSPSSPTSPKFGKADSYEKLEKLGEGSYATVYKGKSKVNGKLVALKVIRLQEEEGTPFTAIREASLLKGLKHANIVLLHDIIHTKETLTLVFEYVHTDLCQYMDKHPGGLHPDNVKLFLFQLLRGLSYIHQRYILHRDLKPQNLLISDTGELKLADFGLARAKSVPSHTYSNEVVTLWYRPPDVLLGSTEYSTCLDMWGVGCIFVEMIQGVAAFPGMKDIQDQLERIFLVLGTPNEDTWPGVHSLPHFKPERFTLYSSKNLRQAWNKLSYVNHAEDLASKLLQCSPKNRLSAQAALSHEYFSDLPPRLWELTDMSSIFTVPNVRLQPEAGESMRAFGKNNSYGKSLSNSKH
Sequence of protein kinases (human kinome) (Homo sapiens, UniProt P23443) (P23443 whole entry): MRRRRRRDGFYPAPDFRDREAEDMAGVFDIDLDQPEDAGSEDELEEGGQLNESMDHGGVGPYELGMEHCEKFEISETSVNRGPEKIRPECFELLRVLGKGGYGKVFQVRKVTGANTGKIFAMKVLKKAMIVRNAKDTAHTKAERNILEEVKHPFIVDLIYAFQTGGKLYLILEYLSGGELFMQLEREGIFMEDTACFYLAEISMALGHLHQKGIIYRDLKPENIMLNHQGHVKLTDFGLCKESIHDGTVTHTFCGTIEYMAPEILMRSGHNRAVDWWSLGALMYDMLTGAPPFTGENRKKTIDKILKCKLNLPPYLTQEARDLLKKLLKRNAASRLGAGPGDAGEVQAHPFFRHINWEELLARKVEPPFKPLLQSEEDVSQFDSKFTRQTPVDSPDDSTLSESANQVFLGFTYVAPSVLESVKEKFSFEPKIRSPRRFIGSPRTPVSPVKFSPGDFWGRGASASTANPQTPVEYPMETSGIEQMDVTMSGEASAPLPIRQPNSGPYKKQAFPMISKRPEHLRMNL
Sequence of protein kinases (human kinome) (Homo sapiens, UniProt O96013) (O96013 whole entry): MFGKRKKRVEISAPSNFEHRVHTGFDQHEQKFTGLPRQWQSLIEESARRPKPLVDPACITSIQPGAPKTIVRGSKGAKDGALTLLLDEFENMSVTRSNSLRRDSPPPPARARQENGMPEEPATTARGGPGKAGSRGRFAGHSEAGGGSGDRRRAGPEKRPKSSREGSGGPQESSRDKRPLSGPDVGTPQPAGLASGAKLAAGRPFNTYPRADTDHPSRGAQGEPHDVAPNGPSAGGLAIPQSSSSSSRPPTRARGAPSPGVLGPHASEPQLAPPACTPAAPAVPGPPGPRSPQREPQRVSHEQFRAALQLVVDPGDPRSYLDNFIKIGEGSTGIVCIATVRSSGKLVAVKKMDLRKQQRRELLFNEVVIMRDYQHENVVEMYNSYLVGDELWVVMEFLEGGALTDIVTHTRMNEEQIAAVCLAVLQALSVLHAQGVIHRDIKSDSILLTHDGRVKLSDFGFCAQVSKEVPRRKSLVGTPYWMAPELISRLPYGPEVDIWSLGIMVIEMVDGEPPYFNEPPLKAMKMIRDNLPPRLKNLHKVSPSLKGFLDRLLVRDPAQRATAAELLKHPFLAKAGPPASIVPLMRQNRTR
Sequence of protein kinases (human kinome) (Homo sapiens, UniProt Q15131) (Q15131 whole entry): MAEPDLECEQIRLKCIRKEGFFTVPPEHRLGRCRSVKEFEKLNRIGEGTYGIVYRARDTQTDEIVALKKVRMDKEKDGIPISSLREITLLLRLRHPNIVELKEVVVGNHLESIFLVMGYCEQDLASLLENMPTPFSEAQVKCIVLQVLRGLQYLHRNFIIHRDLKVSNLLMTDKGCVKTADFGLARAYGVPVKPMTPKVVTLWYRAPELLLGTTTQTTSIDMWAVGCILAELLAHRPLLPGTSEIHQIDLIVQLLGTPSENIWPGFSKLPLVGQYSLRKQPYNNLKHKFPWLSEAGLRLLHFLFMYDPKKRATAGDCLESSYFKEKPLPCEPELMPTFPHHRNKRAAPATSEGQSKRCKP
Sequence of protein kinases (human kinome) (Homo sapiens, UniProt Q92918) (Q92918 whole entry): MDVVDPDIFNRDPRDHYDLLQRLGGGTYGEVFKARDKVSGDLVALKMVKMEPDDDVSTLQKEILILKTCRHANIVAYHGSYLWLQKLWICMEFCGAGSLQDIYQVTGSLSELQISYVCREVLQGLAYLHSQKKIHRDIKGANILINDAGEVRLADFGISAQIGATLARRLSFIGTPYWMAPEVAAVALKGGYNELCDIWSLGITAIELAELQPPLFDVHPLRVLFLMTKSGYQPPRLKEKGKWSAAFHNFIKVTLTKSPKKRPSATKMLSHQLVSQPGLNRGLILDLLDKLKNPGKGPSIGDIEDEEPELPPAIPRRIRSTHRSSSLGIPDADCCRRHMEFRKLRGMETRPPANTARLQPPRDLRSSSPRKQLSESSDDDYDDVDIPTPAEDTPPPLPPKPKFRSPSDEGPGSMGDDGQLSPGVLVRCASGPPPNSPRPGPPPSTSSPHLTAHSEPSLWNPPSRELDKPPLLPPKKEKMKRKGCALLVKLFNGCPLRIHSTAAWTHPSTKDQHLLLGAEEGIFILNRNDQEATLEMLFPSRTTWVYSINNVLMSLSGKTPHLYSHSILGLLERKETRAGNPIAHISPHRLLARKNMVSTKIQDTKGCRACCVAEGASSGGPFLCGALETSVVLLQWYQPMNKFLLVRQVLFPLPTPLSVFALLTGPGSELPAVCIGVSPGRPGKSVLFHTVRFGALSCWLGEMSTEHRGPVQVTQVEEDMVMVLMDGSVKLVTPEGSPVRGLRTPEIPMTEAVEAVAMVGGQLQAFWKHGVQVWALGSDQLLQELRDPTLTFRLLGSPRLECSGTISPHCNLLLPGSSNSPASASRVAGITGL

O=C(COc1cccc2c1C(=O)N(C1CCC(=O)NC1=O)C2=O)NCCCCCCCN1CCc2cc(Nc3ncc(C4CC4)c(NCCCNC(=O)C4CCC4)n3)ccc2C1 (centres unmarked) [BSJ.04.178]
logFC ([1]; experiment wp134): −0.6546 | logFC of CDK10 (Q15131-1) ([1]; experiment wp134): −0.6546

Cc1ncsc1-c1ccc([C@H](C)NC(=O)[C@@H]2C[C@@H](O)CN2C(=O)[C@@H](NC(=O)CCCCCN2CCc3cc(Nc4ncc(C5CC5)c(NCCCNC(=O)C5CCC5)n4)ccc3C2)C(C)(C)C)cc1 [BSJ.05.026]
logFC of RPS6KB1 (P23443-1) ([2]; Experiment wp195): −0.5629 | logFC ([2]; experiment wp195): −0.5629

Cc1ccc(NC(=O)c2cccc(C(F)(F)F)c2)cc1N1Cc2cnc(Nc3ccc(N4CCN(Cc5cn(CCCCCOc6cccc7c6C(=O)N(C6CCC(=O)NC6=O)C7=O)nn5)CC4)nc3)nc2N(C)C1=O (centres unmarked) [DB0646, N-(3-(7-((6-(4-((1-(5-((2-(2,6-Dioxopiperidin-3-yl)-1,3-dioxoisoindolin-4-yl)oxy)pentyl)-1H-1,2,3-triazol-4-yl)methyl)piperazin-1-v)pyridin-3-yl)amino)-1-methyl-2-oxo-1,4-dihydropyrimido[4,5-d]pyrimidin-3(2H)-yl)-4-methylphenyl)-3-(trifluoromethyl)benzamide]
logFC ([3]; PLK1 P53350, experiment wp152): −0.331 | logFC PLK1 ([3]; PLK1 P53350, experiment wp152): −0.331 | logFC ([4]; experiment wp160, 8 hr): −0.3382 | logFC LATS1 ([4]; experiment wp160, 8 hr): −0.3382 | logFC MAP4K1 (Q92918) ([5]; experiment wp045): −0.4789 | logFC MAP4K1 (Q92918) ([5]; experiment wp152): −0.3638 | logFC MAP4K1 (Q92918) ([5]; experiment wp160, 4 hr): −0.3228 | logFC MAP4K1 (Q92918) ([5]; experiment wp160, 8 hr): −0.5785

Cc1ccc(NC(=O)c2cccc(C(F)(F)F)c2)cc1N1Cc2cnc(Nc3ccc(N4CCN(CCCOc5cccc6c5C(=O)N(C5CCC(=O)NC5=O)C6=O)CC4)nc3)nc2N(C)C1=O (centres unmarked) [DB0662]
logFC MAP4K1 (Q92918) ([5]; experiment wp168): −0.4067 | logFC ([6]; experiment wp168): −1.34 | logFC PAK4 ([6]; experiment wp168): −1.34

Cc1ccc(NC(=O)c2cccc(C(F)(F)F)c2)cc1N1Cc2cnc(Nc3ccc(N4CCN(CCCCC(=O)N[C@H](C(=O)N5C[C@H](O)C[C@H]5C(=O)N[C@@H](C)c5ccc(-c6scnc6C)cc5)C(C)(C)C)CC4)nc3)nc2N(C)C1=O [DB1113]
logFC MAP4K1 (Q92918) ([5]; experiment wp168): −0.8463

CC(C)(C)c1nc(-c2cccc(NS(=O)(=O)c3c(F)cccc3F)c2F)c(-c2ccnc(NCCOCCNC(=O)CCOCCOCCNc3cccc4c3C(=O)N(C3CCC(=O)NC3=O)C4=O)n2)s1 (centres unmarked) [DD.03.106]
logFC PLK1 ([3]; PLK1 P53350, experiment wp147, 4 uM): −0.3533 | logFC ([3]; PLK (P53350), experiment wp147, 4 uM): −0.3533

Cc1cnc(Nc2ccc(N3CCN(CCCCCCC(=O)N[C@H](C(=O)N4C[C@H](O)C[C@H]4C(=O)N[C@@H](C)c4ccc(-c5scnc5C)cc4)C(C)(C)C)CC3)cc2)nc1Nc1cccc(S(=O)(=O)NC(C)(C)C)c1 [JWG.123]
logFC of RPS6KB1 (P23443-1) ([2]; Experiment wp195): −0.3426 | logFC ([2]; experiment wp195): −0.3426

CNC(=O)c1ccccc1Nc1cc(Nc2ccc(N3CCN(CCOCCOCCNC(=O)CNc4cccc5c4C(=O)N(C4CCC(=O)NC4=O)C5=O)CC3)cc2OC)ncc1C(F)(F)F (centres unmarked) [MFH.5.103.1]
logFC ([1]; experiment wp076): −0.6988 | logFC of CDK10 (Q15131-1) ([1]; experiment wp076): −0.6988

CCc1cnn2c(N(Cc3ccc(N)nc3)C(=O)CCOCCOCCOCCNC(=O)CNc3cccc4c3C(=O)N(C3CCC(=O)NC3=O)C4=O)cc(N3CCCC[C@H]3CCO)nc12 (some centres unmarked) [MFH.5.115.2]
logFC ([3]; PLK1 P53350, experiment wp076): −0.56 | logFC PLK1 ([3]; PLK1 P53350, experiment wp076): −0.56

O=C1CCC(N2C(=O)c3cccc(NCCCCCCCCN4CCC(NC(=O)c5[nH]ncc5NC(=O)c5c(Cl)cccc5Cl)CC4)c3C2=O)C(=O)N1 (centres unmarked) [MFH.5.126.1]
logFC ([3]; PLK1 P53350, experiment wp076): −1.071 | logFC PLK1 ([3]; PLK1 P53350, experiment wp076): −1.071 | logFC ([7]; experiment wp076): −0.3413 | logFC of CDK14 (O94921-1) ([7]; experiment wp076): −0.3413

Cc1ncsc1-c1ccc([C@H](C)NC(=O)[C@@H]2C[C@@H](O)CN2C(=O)[C@@H](NC(=O)CCCCCN2CCN(c3ccc(Nc4ncc5scc(-c6cccc(NS(C)(=O)=O)c6)c5n4)cc3)CC2)C(C)(C)C)cc1 [RSS0680, (2S,4R)-1-((S)-3,3-Dimethyl-2-(6-(4-(4-((7-(3-(methylsulfonamido)phenyl)thieno[3,2-d]pyrimidin-2-yl)amino)phenyl)piperazin-1-yl)hexanamido)butanoyl)-4-hydroxy-N—((S)-1-(4-(4-methylthiazol-5yl)phenyl)ethyl)pyrrolidine-2-carboxamide]
logFC ([4]; experiment wp117): −0.4143 | logFC LATS1 ([4]; experiment wp117): −0.4143 | logFC of RPS6KB1 (P23443-1) ([2]; Experiment wp117): −0.3893 | logFC ([2]; experiment wp080): −0.4358 | logFC ([2]; experiment wp117): −0.3893 | logFC of RPS6KB1 (P23443-1) ([2]; experiment wp080): −0.4358

Nc1ncnc2c1c(-c1ccc(Oc3ccccc3)cc1)nn2[C@H]1CC[C@H](N2CCN(CCOCCNC(=O)CNc3cccc4c3C(=O)N(C3CCC(=O)NC3=O)C4=O)CC2)CC1 (some centres unmarked) [SB1.G.181]
logFC ([4]; experiment wp071): −1.273 | logFC LATS1 ([4]; experiment wp071): −1.273

Cc1ccc(C(=O)Nc2ccc(CN3CCN(CCCOCCOCCOCCNC(=O)COc4cccc5c4C(=O)N(C4CCC(=O)NC4=O)C5=O)CC3)c(C(F)(F)F)c2)cc1C#Cc1cnc2cccnn12 (centres unmarked) [SB1.G.187]
logFC ([7]; experiment wp172): −1.525 | logFC of CDK14 (O94921-1) ([7]; Experiment wp172): −1.525

CC(C)S(=O)(=O)c1ccccc1Nc1nc(Nc2ccc(N3CCN(CCOCCOCCNC(=O)CNc4cccc5c4C(=O)N(C4CCC(=O)NC4=O)C5=O)CC3)cc2)ncc1Cl (centres unmarked) [TL12.186]
logFC ([1]; experiment wp131): −0.935 | logFC of CDK10 (Q15131-1) ([1]; experiment wp131): −0.935 | logFC MAP4K1 (Q92918) ([5]; experiment wp131): −0.4581 | logFC MAP4K1 (Q92918) ([5]; experiment wp137): −0.6136

NC(=O)c1c(F)cccc1Nc1nc(Nc2ccc(S(=O)(=O)NCCOCCOCCOCCOCCNc3cccc4c3C(=O)N(C3CCC(=O)NC3=O)C4=O)cc2)ncc1Br (centres unmarked) [TMX.02.138]
logFC [8]: −1.476 | logFC of PRKAA2 (P54646) [8]: −1.476

Cc1cc(Nc2ncc(Br)c(Nc3cccc(F)c3C(N)=O)n2)ccc1S(=O)(=O)NCCOCCOCCOCCOCCNc1cccc2c1C(=O)N(C1CCC(=O)NC1=O)C2=O (centres unmarked) [TMX.02.174]
logFC [8]: −1.826 | logFC of PRKAA2 (P54646) [8]: −1.826

Nc1ncc(-c2ccc(S(=O)(=O)N(CCCNC(=O)CCOCCOCCOCCOCCOCCNc3cccc4c3C(=O)N(C3CCC(=O)NC3=O)C4=O)C3CC3)cc2)cc1-c1ccc2c(c1)CCNC2=O (centres unmarked) [WH.10417.099]
logFC ([6]; experiment wp103): −0.3705 | logFC PAK4 ([6]; experiment wp103): −0.3705 | logFC ([6]; experiment wp105): −0.3478 | logFC PAK4 ([6]; experiment wp105): −0.3478 | logFC ([6]; experiment wp107): −0.4797 | logFC PAK4 ([6]; experiment wp107): −0.4797

C=CCn1c(=O)c2cnc(Nc3ccc(N4CCN(CCCNc5cccc6c5C(=O)N(C5CCC(=O)NC5=O)C6=O)CC4)cc3)nc2n1-c1cccc(C(C)(C)O)n1 (centres unmarked) [ZNL.02.096]
logFC ([6]; experiment wp056): −0.634 | logFC PAK4 ([6]; experiment wp056): −0.634 | logFC ([6]; experiment wp081): −0.3989 | logFC PAK4 ([6]; experiment wp081): −0.3989 | logFC ([6]; experiment wp106, 2 hr): −0.4238 | logFC PAK4 ([6]; experiment wp106, 2 hr): −0.4238 | logFC ([6]; experiment wp106, 4 hr): −0.5768 | logFC PAK4 ([6]; experiment wp106, 4 hr): −0.5768 | logFC ([6]; experiment wp118): −0.5732 | logFC PAK4 ([6]; experiment wp118): −0.5732
